In ChEMBL document CHEMBL3804818 (J Med Chem, 2016):

Legend:
Endoplasmin = Endoplasmin (Homo sapiens, UniProt P14625)
[1] = molecular target: Heat shock protein HSP 90-alpha (Homo sapiens, UniProt P07900)

Endoplasmin, sequence (P14625 whole entry): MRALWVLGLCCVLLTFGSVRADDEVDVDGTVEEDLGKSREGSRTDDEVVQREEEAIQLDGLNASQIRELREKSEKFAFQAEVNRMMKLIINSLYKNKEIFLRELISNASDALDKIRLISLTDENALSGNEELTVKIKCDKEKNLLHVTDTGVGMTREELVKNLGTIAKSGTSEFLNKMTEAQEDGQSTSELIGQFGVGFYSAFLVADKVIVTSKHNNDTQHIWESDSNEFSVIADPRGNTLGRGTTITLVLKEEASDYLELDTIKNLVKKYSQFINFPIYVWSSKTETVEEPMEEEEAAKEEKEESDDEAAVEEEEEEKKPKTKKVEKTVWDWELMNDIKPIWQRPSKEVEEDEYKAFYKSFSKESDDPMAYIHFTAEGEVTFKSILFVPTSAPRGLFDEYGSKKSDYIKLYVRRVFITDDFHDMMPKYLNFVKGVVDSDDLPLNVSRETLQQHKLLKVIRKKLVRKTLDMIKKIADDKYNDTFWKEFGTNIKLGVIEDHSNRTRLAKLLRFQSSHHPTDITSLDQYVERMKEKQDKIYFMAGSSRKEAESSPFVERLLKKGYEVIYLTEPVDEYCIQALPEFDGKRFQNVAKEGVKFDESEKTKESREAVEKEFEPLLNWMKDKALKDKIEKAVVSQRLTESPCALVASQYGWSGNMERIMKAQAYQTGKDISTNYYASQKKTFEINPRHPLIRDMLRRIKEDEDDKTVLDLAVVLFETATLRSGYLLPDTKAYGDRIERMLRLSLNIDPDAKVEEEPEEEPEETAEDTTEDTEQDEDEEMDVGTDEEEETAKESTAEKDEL

SMILES	Kd (Endoplasmin)	Kd [1]
COC(=O)c1c(O)cc(O)c(Cl)c1CCc1nccn1Cc1ccc(C)s1	0.68 µM	5.13 µM
COC(=O)c1c(O)cc(O)c(Cl)c1CCc1nccn1Cc1ccno1	0.4 µM	0.81 µM
COC(=O)c1c(O)cc(O)c(Cl)c1CCc1nccn1Cc1ccc(Cl)cc1	0.81 µM	–
COC(=O)c1c(O)cc(O)c(Cl)c1CCc1nccn1Cc1cccnc1	4.04 µM	–
COC(=O)c1c(O)cc(O)c(Cl)c1CCc1nccn1Cc1sccc1Cl	0.76 µM	3.16 µM
COC(=O)c1c(O)cc(O)c(Cl)c1CCc1nccn1Cc1ccccc1Br	1.6 µM	–
COC(=O)c1c(O)cc(O)c(Cl)c1CCc1nccn1Cc1ccsc1	2.14 µM	6.54 µM
COC(=O)c1c(O)cc(O)c(Cl)c1CCc1nccn1Cc1ccco1	0.55 µM	5.91 µM
COC(=O)c1c(O)cc(O)c(Cl)c1CCc1nccn1Cc1ccccn1	4.94 µM	9.92 µM
COC(=O)c1c(O)cc(O)c(Cl)c1CCc1nccn1Cc1ccccc1OC	1.3 µM	53.9 µM
CCc1ccccc1Cn1ccnc1CCc1c(Cl)c(O)cc(O)c1C(=O)OC	0.81 µM	38.8 µM
CCOc1ccccc1Cn1ccnc1CCc1c(Cl)c(O)cc(O)c1C(=O)OC	0.2 µM	8.1 µM
COC(=O)c1c(O)cc(O)c(Cl)c1CCc1nccn1Cc1ccc(C)cc1	0.73 µM	25.2 µM
C=Cc1ccsc1Cn1ccnc1CCc1c(Cl)c(O)cc(O)c1C(=O)OC	0.75 µM	36.7 µM
COC(=O)c1c(O)cc(O)c(Cl)c1CCc1nccn1Cc1ccccc1OC(C)C	0.09 µM	0.24 µM
COC(=O)c1c(O)cc(O)c(Cl)c1CCc1nccn1Cc1ccc(C)o1	0.65 µM	–
COC(=O)c1c(O)cc(O)c(Cl)c1CCc1nccn1Cc1ccc(C#N)cc1	4.7 µM	18.2 µM
CCCOc1ccccc1Cn1ccnc1CCc1c(Cl)c(O)cc(O)c1C(=O)OC	0.25 µM	2.3 µM

SMILES	Kd (Endoplasmin)	Kd [1]
COC(=O)c1c(O)cc(O)c(Cl)c1CCc1nccn1Cc1ccoc1	1.5 µM	3.77 µM
COC(=O)c1c(O)cc(O)c(Cl)c1CCc1nccn1Cc1ccc(OC)cc1	6.9 µM	> 150 µM
COC(=O)c1c(O)cc(O)c(Cl)c1CCc1nccn1Cc1ccc(F)cc1	3.2 µM	–
COC(=O)c1c(O)cc(O)c(Cl)c1CCc1nccn1Cc1ccccc1C	3 µM	68.1 µM
C=Cc1ccoc1Cn1ccnc1CCc1c(Cl)c(O)cc(O)c1C(=O)OC	2.36 µM	–
COC(=O)c1c(O)cc(O)c(Cl)c1CCc1nccn1Cc1cccs1	0.47 µM	3.92 µM
COC(=O)c1c(O)cc(O)c(Cl)c1CCc1nccn1Cc1ccc(C)cc1OC	2.35 µM	72.5 µM
COC(=O)c1c(O)cc(O)c(Cl)c1CCc1nccn1Cc1oc(C)cc1C	0.35 µM	9.2 µM
COC(=O)c1c(O)cc(O)c(Cl)c1CCc1nccn1Cc1cc(Cl)cs1	0.67 µM	1.8 µM
COC(=O)c1c(O)cc(O)c(Cl)c1CCc1nccn1Cc1nccs1	2.5 µM	16 µM
COC(=O)c1c(O)cc(O)c(Cl)c1CCc1nccn1Cc1cncnc1	9.18 µM	9.92 µM
COC(=O)c1c(O)cc(O)c(Cl)c1CCc1nccn1Cc1ccccc1Cl	1.39 µM	8.47 µM
COC(=O)c1c(O)cc(O)c(Cl)c1CCc1nccn1Cc1cccc(F)c1	1.53 µM	9.63 µM
COC(=O)c1c(O)cc(O)c(Cl)c1CCc1nccn1Cc1ccc(Cl)s1	0.93 µM	34.7 µM
CCc1ccsc1Cn1ccnc1CCc1c(Cl)c(O)cc(O)c1C(=O)OC	0.72 µM	6.94 µM
COC(=O)c1c(O)cc(O)c(Cl)c1CCc1nccn1Cc1ccccc1C(F)(F)F	1.53 µM	19.3 µM
C#Cc1ccc(Cn2ccnc2CCc2c(Cl)c(O)cc(O)c2C(=O)OC)cc1	1.4 µM	15.8 µM
COC(=O)c1c(O)cc(O)c(Cl)c1CCc1nccn1Cc1ccccc1F	1.36 µM	11.4 µM
